According to PubChem BioAssay (NCI):
“And” between values parts separate entries of the source, which are not always exact repeats. Identical values can stand only once.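 Growth conditions: 96-well plates. Treatment: test compound, 48 hours, 5 concentrations. Analysis: linear interpolation between bracketing concentrations; unreached endpoints set to highest concentration. GI50 is the concentration that inhibits growth by half. Definition used: TGI = concentration required for complete inhibition of growth.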

Legend:
Experiment in all cases: inhibition of tumour cell growth, NCI panel, 48 h
[1] = system: DLD-1 colon
[2] = system: IGROV1 ovarian
[3] = system: SN12C renal
[4] = system: HL-60(TB) leukemia
[5] = system: SF-539 CNS
[6] = system: HOP-18 NSCLC
[7] = system: SK-MEL-5 melanoma
[8] = system: NCI-H522 lung
[9] = system: SK-OV-3 ovarian
[10] = system: SNB-19 CNS
[11] = system: HCC-2998 colon
[12] = system: 786-0 renal
[13] = system: UACC-257 melanoma
[14] = system: SK-MEL-2 melanoma
[15] = system: HT29 colon
[16] = system: NCI-H460 lung
[17] = system: SF-295 CNS
[18] = system: A549 NSCLC
[19] = system: MOLT-4 leukemia
[20] = system: KM20L2 colon
[21] = system: RXF 393 renal
[22] = system: DMS 114 small cell lung
[23] = system: OVCAR-5 ovarian
[24] = system: HOP-62 NSCLC
[25] = system: DMS 273 small cell lung
[26] = system: A498 renal
[27] = system: LOX IMVI melanoma
[28] = system: RPMI-8226 leukemia
[29] = system: TK-10 renal
[30] = system: UO-31 renal
[31] = system: XF 498 CNS
[32] = system: ACHN renal
[33] = system: MALME-3M melanoma
[34] = system: COLO 205 colon
[35] = system: M14 melanoma
[36] = system: NCI-H23 lung
[37] = system: OVCAR-4 ovarian
[38] = system: CAKI-1 renal
[39] = system: SNB-78 CNS
[40] = system: NCI-H226 lung
[41] = system: LXFL 529 NSCLC
[42] = system: SR leukemia
[43] = system: SK-MEL-28 melanoma
[44] = system: SNB-75 CNS
[45] = system: OVCAR-3 ovarian
[46] = system: HCT-15 colon
[47] = system: EKVX NSCLC
[48] = system: K-562 leukemia
[49] = system: KM12 colon
[50] = system: M19-MEL melanoma
[51] = system: HOP-92 NSCLC
[52] = system: CCRF-CEM leukemia
[53] = system: SW-620 colon
[54] = system: U251 CNS
[55] = system: SF-268 CNS
[56] = system: UACC-62 melanoma
[57] = system: HCT-116 colon

COc1ccc(CN[C@H]2CCc3cc(OC)c(OC)c(OC)c3-c3ccc(SC)c(=O)cc32)c(OC)c1OC
GI50 [1]: < 10 nM | TGI [1]: > 100000 nM | GI50 [2]: 39.5 nM | TGI [2]: > 100000 nM | TGI [3]: 59800 nM | GI50 [4]: < 10 nM | GI50 [5]: 10 nM | TGI [5]: 47.8 nM and 38.7 nM | TGI [6]: > 100000 nM | TGI [7]: 257 nM | TGI [8]: 49.5 nM | TGI [9]: > 100000 nM | TGI [10]: > 100000 nM | GI50 [11]: 23.8 nM | TGI [11]: 41.3 nM and 65.7 nM | GI50 [12]: 28.5 nM | TGI [12]: > 100000 nM | GI50 [13]: 37 nM | TGI [13]: > 100000 nM | GI50 [14]: 11.8 nM | TGI [15]: 30 nM | TGI [16]: 76.7 nM | GI50 [17]: 16.7 nM | TGI [17]: > 100000 nM | GI50 [18]: 25.1 nM | TGI [18]: > 100000 nM | TGI [19]: > 100000 nM | GI50 [20]: < 10 nM | TGI [20]: 35.1 nM and 14.6 nM | TGI [21]: 49.7 nM | TGI [22]: 40.2 nM | GI50 [23]: > 100000 nM | TGI [23]: > 100000 nM | GI50 [24]: 375 nM | TGI [24]: > 100000 nM | GI50 [25]: < 10 nM | TGI [25]: 33.6 nM | TGI [26]: 80.4 nM | GI50 [27]: < 10 nM | TGI [27]: 15700 nM | GI50 [28]: 25.4 nM | TGI [28]: 31500 nM | TGI [29]: > 100000 nM | GI50 [30]: 89.8 nM | TGI [30]: 98900 nM | GI50 [31]: 20.1 nM | TGI [31]: 84.8 nM and 83.6 nM | GI50 [32]: 42.8 nM | TGI [32]: > 100000 nM | GI50 [33]: < 10 nM | TGI [33]: > 100000 nM | GI50 [34]: < 10 nM | TGI [34]: 64.5 nM and 15.5 nM | GI50 [35]: 10.2 nM | GI50 [36]: < 10 nM | TGI [36]: 58 nM and 39.6 nM | TGI [37]: > 100000 nM | TGI [38]: > 100000 nM | GI50 [39]: < 10 nM | TGI [39]: > 100000 nM | GI50 [40]: 17.2 nM | TGI [40]: 73.6 nM and 50.9 nM | GI50 [41]: < 10 nM | TGI [41]: > 100000 nM | GI50 [42]: < 10 nM | GI50 [43]: 10.1 nM | TGI [43]: > 100000 nM | GI50 [44]: 5770 nM | GI50 [45]: < 10 nM | TGI [45]: 61.8 nM and 28 nM | TGI [46]: 93.8 nM | TGI [47]: > 100000 nM | GI50 [48]: < 10 nM | TGI [48]: 1350 nM | GI50 [49]: < 10 nM | TGI [49]: 228 nM and 40.8 nM | GI50 [50]: 23 nM | TGI [50]: > 100000 nM | GI50 [51]: 29.5 nM | TGI [51]: 77200 nM | GI50 [52]: 10.7 nM | TGI [52]: 5460 nM | GI50 [53]: < 10 nM | TGI [53]: > 100000 nM | GI50 [54]: 29.9 nM | TGI [54]: 44.4 nM and 103 nM | GI50 [55]: 11.1 nM | TGI [56]: 19100 nM | GI50 [57]: < 10 nM | TGI [57]: 59.7 nM and 133 nM
